Reference: patent publication US8933038B2, “Method of treating cancer with an HLA-A*3303-restricted WT1 peptide and pharmaceutical composition comprising the same” (International Institute of Cancer Immunology, Inc., priority 2006, dated 2015)
Ends that are not written are not given here.

Experiments:
human cells = details: in vitro, HLA-A*2402, Non-patent Document 12; cited from earlier work
[1] = tested on: B-LCL cells pulsed with the same WT1 peptide (BLCL-Ps)
Protocol: Peripheral blood mononuclear cells (PBMCs) were separated by Ficoll-Hypaque gradient density centrifugation method from peripheral blood that had been collected from an HLA-A*3303-positive healthy donor (HLA-A*3303/0207). The PBMCs were then seeded to a 24-well cell culture plate at the density of about 1×10^7 in RPMI 1640 medium containing 10% FCS, and a culture supernatant of B95-8 cells (cells producing EB virus) were added. They were cultured at 37° C. with 5% CO2 for about 1 month. B-LCL cells transformed with EB virus, which are B-cell tumor cells, were obtained. […] B-LCL cells were pulsed by incubating them with 20 μg/ml of WT1337, WT1364, WT1367 or WT1409 for 2 hours, and irradiated with 80 Gy of radiation. The resulting B-LCL cells (hereinafter referred to as B-LCL cells pulsed with a WT1 peptide) were used as antigen-presenting cells for the following experiments.
(§1) 3×10^6 of PBMCs (HLA-A*3303/1101) were cultured in a 24-well cell culture plate in complete medium (450 RPMI, 45% AMI-V medium and 10% human AB serum) containing 20 μg/ml of WT1337, WT1364, WT1367 or WT1409 at 37° C. with 5% CO2 for 1 week to obtain responding cells. 2×10^6 of the resulting responding cells were cocultured with 1×10^6 of the B-LCL cells pulsed with the same WT1 peptide in complete medium for 1 week (first stimulation). The PBMCs were cocultured with the B-LCL cells pulsed with the WT1 peptide three more times (second to fourth stimulations) under the conditions under which 20 IU/ml (final concentration) of IL-2 was added as follows: second stimulation: two times every other day from 3 days after the initiation of stimulation; third and fourth stimulations: three times at intervals of one day from the day after the initiation of stimulation. The resulting cells were concentrated using Negative Selection Columns Gravity Feed Kit (StemSp) so that the ratio of CD8-positive T cells became about 800, and cocultured with the B-LCL cells pulsed with the WT1 peptide (fifth stimulation). […]
(§2) The cytotoxic activity of CTLs was measured using ^51Cr release assay. […] The amounts of ^51Cr released into the supernatants were measured using a liquid scintillation counter. The cytotoxic activity (%) was determined using the following formula: (^51Cr release in supernatant of sample−Spontaneous ^51Cr release)/(Maximum ^51Cr release−Spontaneous ^51Cr release)×100 wherein Spontaneous ^51Cr release is ^51Cr release observed when the target cells into which ^51Cr had been incorporated were cultured alone under the same condition, and Maximum ^51Cr release is ^51Cr release observed when the target cells into which ^51Cr had been incorporated were completely lysed using 1% Triton X-100.

[2] = tested on: B-LCL expressing WT1 (B-LCL-WT1)
Protocol: 3×10^6 of PBMCs (HLA-A*3303/1101) were cultured in a 24-well cell culture plate in complete medium (450 RPMI, 45% AMI-V medium and 10% human AB serum) containing 20 μg/ml of WT1337, WT1364, WT1367 or WT1409 at 37° C. with 5% CO2 for 1 week to obtain responding cells. 2×10^6 of the resulting responding cells were cocultured with 1×10^6 of the B-LCL cells pulsed with the same WT1 peptide in complete medium for 1 week (first stimulation). […]
as §2
The cytotoxic activity of CTLs induced with WT1367 against B-LCL cell expressing WT1 was determined using the method as described above. […]

[3] = tested on: human peripheral blood mononuclear cells having HLA-A*0201; details: human PBMCs having HLA-A*0201 stimulated with peptide; Non-patent Document 11; cited from earlier work

Protocol for TF-1 cells: as §1, §2
The cytotoxic activity of CTLs induced with WT1364, WT1367 or WT1409 against TF-1 cells that are tumor cells expressing a WT1 gene (HLA-A*3303-positive) was determined using the method as described above. […]

| Sequence | cytotoxic activity (specific lysis) of CTLs induced with the peptide (TF-1 cells) | cytotoxic activity (specific lysis) of CTLs induced with the peptide [1] | also measured |
| --- | --- | --- | --- |
| CMTWNQMNL (listed as Homo sapiens) [WT1235] |  |  | induction of WT1-specific CTLs (human cells): WT1-specific CTLs (TAK-1) are induced |
| FSRSDQLKR [WT1364] | have a cytotoxic activity against the cell expressing a WT1 gene exogenously | damage specifically BLCL-Ps |  |
| LSHLQMHSR [WT1337] |  | damage specifically BLCL-Ps |  |
| SDQLKRHQR [WT1367] | have a cytotoxic activity against the cell expressing a WT1 gene exogenously | damage specifically BLCL-Ps | cytotoxic activity (specific lysis) of CTLs induced with the peptide [2]: damage only the cell which is HLA-A*3303-positive and expresses WT1 |
| SLGEQQYSV (listed as Homo sapiens) [WH187 peptide] |  |  | induction of WT1-specific CTLs [3]: WT1-specific CTLs are induced |
| TSEKPFSCR [WT1409] | have a cytotoxic activity against the cell expressing a WT1 gene exogenously | damage specifically BLCL-Ps |  |
